In patent US11591341B2 (ALIGOS THERAPEUTICS, INC., priority 2019, dated 2023) one finds EC50 data, which are given here for 25 compounds.

The test system of this test is HBV. In words: HBV-DNA Antiviral Assay Using HepG2.117 Cells (intracellular HBV DNA by qPCR). Format: cell-based, hepatitis B virus (genotype D). Particulars: Hepatitis B virus, HepG2.117. The gist of the method: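 HepG2.117 cells (genotype D HBV, Tet-off) were induced by doxycycline withdrawal and treated for 3 days with 9 concentrations in 4-fold dilution, 2% DMSO final. Intracellular HBV DNA was measured by qPCR against a standard curve, with ATPlite viability read in parallel. EC50, EC90 and CC50 came from fits against the DMSO control.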
Background: In qPCR the cycle at which signal appears reflects the starting amount.
In turn, `C[C@H](NC(=O)c1c2n(c(=O)n1-c1ccc(OCC(F)(F)F)cc1)CCN(C(=O)c1ccc(Br)c(Cl)c1)C2)c1ccc(OCC(N)=O)cc1-n1cccn1` (stereo in doubt) [Example 380, 7-(4-bromo-3-chloro-benzoyl)-3-oxo-N-[rac-(1S)-1-[4-(2-amino-2-oxo-ethoxy)-2-pyrazol-1-yl-phenyl]ethyl]-2-[4-(2,2,2-trifluoroethoxy)phenyl]-6,8-dihydro-5H-imidazo[1,5-a]pyrazine-1-carboxamide] registered a concentration giving a half-maximal response (EC50) of over 5 µM.
For the compound `COc1ccc(-n2c(C(=O)NCc3cnccn3)c3n(c2=O)CCN(C(=O)c2ccc(Br)c(Cl)c2)C3)cc1` [Example 171, 7-(4-bromo-3-chloro-benzoyl)-2-(4-methoxyphenyl)-3-oxo-N-(pyrazin-2-ylmethyl)-6,8-dihydro-5H-imidazo[1,5-a]pyrazine-1-carboxamide], the half-maximal effective concentration (EC50) is over 5 µM.
`O=C(NCc1ccccc1-c1ncccn1)c1c2n(c(=O)n1-c1ccc(OCC(F)(F)F)cc1)CCN(C(=O)c1ccc(Br)c(Cl)c1)C2` [Example 377, 7-(4-bromo-3-chloro-benzoyl)-3-oxo-N-[(2-pyrimidin-2-ylphenyl)methyl]-2-[4-(2,2,2-trifluoroethoxy)phenyl]-6,8-dihydro-5H-imidazo[1,5-a]pyrazine-1-carboxamide] came in with an EC50 of under 0.1 µM.
`O=C(NCc1ccccc1-c1ncc[nH]1)c1c2n(c(=O)n1-c1ccc(OCC(F)(F)F)cc1)CCN(C(=O)c1ccc(Br)c(Cl)c1)C2` [Example 425, 7-(4-bromo-3-chloro-benzoyl)-N-[[2-(1H-imidazol-2-yl)phenyl]methyl]-3-oxo-2-[4-(2,2,2-trifluoroethoxy)phenyl]-6,8-dihydro-5H-imidazo[1,5-a]pyrazine-1-carboxamide] came in with an EC50 of under 0.1 µM.
For `C[C@@H]1CN(c2ccc(-n3c(C(=O)NCc4ccccc4)c4n(c3=O)CCN(C(=O)c3ccc(Br)c(Cl)c3)C4)cc2)CCO1` (racemic) [Example 416, N-benzyl-7-(4-bromo-3-chloro-benzoyl)-3-oxo-2-[4-[rac-(2R)-2-methylmorpholin-4-yl]phenyl]-6,8-dihydro-5H-imidazo[1,5-a]pyrazine-1-carboxamide] the value was 0.1 to 0.5 µM.
Consider `COc1ccc([C@H](C)NC(=O)c2c3n(c(=O)n2-c2ccc(OC4CC4)cc2)C[C@H](C)N(C(=O)c2ccc(Br)c(Cl)c2)C3)cc1` (mixture of isomers) [Example 436, (6SR)-7-(4-bromo-3-chloro-benzoyl)-2-[4-(cyclopropoxy)phenyl]-N-[(1S)-1-(4-methoxyphenyl)ethyl]-6-methyl-3-oxo-6,8-dihydro-5H-imidazo[1,5-a]pyrazine-1-carboxamide], for which the EC50 is under 0.1 µM.
The same measure for `CC(C)Oc1ccc(-n2c(C(=O)NCc3ccccc3C(N)=O)c3n(c2=O)CCN(C(=O)c2ccc(Br)c(Cl)c2)C3)cc1` [Example 222, 7-(4-bromo-3-chloro-benozyl)-N-[(2-carbamoylphenyl)methyl]-2-(4-isopropoxyphenyl)-3-oxo-6,8-dihydro-5H-imidazo[1,5-a]pyrazine-1-carboxamide]: over 5 µM; for `COc1ccc(-n2c(C(=O)NCc3ccccc3)c3n(c2=O)CCN(C(=O)c2ccc(Br)c(Cl)c2)C3)cc1` [Example 24, N-benzyl-7-(4-bromo-3-chloro-benzoyl)-2-(4-methoxyphenyl)-3-oxo-6,8-dihydro-5H-imidazo[1,5-a]pyrazine-1-carboxamide]: 0.1 to 0.5 µM.
Compound `COc1ccc(CNC(=O)c2c3n(c(=O)n2-c2ccc(OC(C)C)cc2)CCN(C(=O)c2ccc(Br)c(Cl)c2)C3)cc1` [Example 185, 7-(4-bromo-3-chloro-benzoyl)-2-(4-isopropoxyphenyl)-N-[(4-methoxyphenyl)methyl]-3-oxo-6,8-dihydro-5H-imidazo[1,5-a]pyrazine-1-carboxamide] registered an EC50 of 0.1 to 0.5 µM.
`O=C(NCc1ccccc1-c1ccccn1)c1c2n(c(=O)n1-c1ccc(OC3CC3)cc1)CCN(C(=O)c1ccc(Br)c(Cl)c1)C2` [Example 369, 7-(4-bromo-3-chloro-benozyl)-2-[4-(cyclopropoxy)phenyl]-3-oxo-N-[[2-(2-pyridyl)phenyl]methyl]-6,8-dihydro-5H-imidazo[1,5-a]pyrazine-1-carboxamide] registered an EC50 of under 0.1 µM.
Turning to `CC(C)Oc1ccc(-n2c(-c3ncc(-c4ccccc4)o3)c3n(c2=O)CCN(C(=O)c2ccc(Br)c(Cl)c2)C3)cc1` [Example 197, 7-(4-bromo-3-chloro-benzoyl)-2-(4-isopropoxyphenyl)-1-(5-phenyloxazol-2-yl)-6,8-dihydro-5H-imidazo[1,5-a]pyrazin-3-one], the EC50 was over 5 µM.
`COc1ccc([C@@H](C)NC(=O)c2c3n(c(=O)n2-c2ccc(OC4CC4)cc2)CCN(C(=O)c2ccc(Br)c(Cl)c2)C3)cc1` [Example 453, 7-(4-bromo-3-chloro-benzoyl)-2-[4-(cyclopropoxy)phenyl]-N-[(1R)-1-(4-methoxyphenyl)ethyl]-3-oxo-6,8-dihydro-5H-imidazo[1,5-a]pyrazine-1-carboxamide] showed an EC50 of 0.1 to 0.5 µM.
`Cc1c(C(=O)N2CCn3c(c(C(=O)NCc4ccccc4)n(-c4ccc(OC5CC5)cc4)c3=O)C2)ccc(Br)c1Cl` [Example 462, N-benzyl-7-(4-bromo-3-chloro-2-methyl-benzoyl)-2-[4-(cyclopropoxy)phenyl]-3-oxo-6,8-dihydro-5H-imidazo[1,5-a]pyrazine-1-carboxamide] returned an EC50 of 0.5 to 5 µM.
`COc1ccc([C@H](C)NC(=O)c2c3n(c(=O)n2-c2ccc(OC)cc2)CCN(C(=O)c2ccc(Br)c(Cl)c2)C3)cc1` (stereo in doubt) [Example 73, 7-(4-bromo-3-chloro-benzoyl)-2-(4-methoxyphenyl)-3-oxo-N-[rac-(1S)-1-(4-methoxyphenyl)ethyl]-6,8-dihydro-5H-imidazo[1,5-a]pyrazine-1-carboxamide] yielded a concentration for a half-maximal effect (EC50) of under 0.1 µM.
The compound `COc1cccc(CNC(=O)c2c3n(c(=O)n2-c2ccccc2)CCN(C(=O)c2ccc(Br)c(Cl)c2)C3)c1` [Example 33, 7-(4-bromo-3-chloro-benzoyl)-N-[(3-methoxyphenyl)methyl]-3-oxo-2-phenyl-6,8-dihydro-5H-imidazo[1,5-a]pyrazine-1-carboxamide] returned a concentration giving a half-maximal response (EC50) of 0.1 to 0.5 µM.
In the case of `O=C(NCc1ccccc1-n1cc(F)cn1)c1c2n(c(=O)n1-c1ccc(OCC(F)(F)F)cc1)CCN(C(=O)c1ccc(Br)c(Cl)c1)C2` [Example 327, 7-(4-bromo-3-chloro-benzoyl)-N-[[2-(4-fluoropyrazol-1-yl)phenyl]methyl]-3-oxo-2-[4-(2,2,2-trifluoroethoxy)phenyl]-6,8-dihydro-5H-imidazo[1,5-a]pyrazine-1-carboxamide], the EC50 was under 0.1 µM.
`COc1ccc(-n2c(C(=O)NCc3ccc(CC(N)=O)cc3)c3n(c2=O)CCN(C(=O)c2ccc(Br)c(Cl)c2)C3)cc1` [Example 183, N-[[4-(2-amino-2-oxo-ethyl)phenyl]methyl]-7-(4-bromo-3-chloro-benzoyl)-2-(4-methoxyphenyl)-3-oxo-6,8-dihydro-5H-imidazo[1,5-a]pyrazine-1-carboxamide] registered a half-maximal effective concentration (EC50) of 0.5 to 5 µM.
In turn, `C[C@H](c1ccccc1)N1C[C@H](O)Cn2c(c3n(c2=O)CCN(C(=O)c2ccc(Br)c(Cl)c2)C3)C1=O` (stereo in doubt) [Example 203, (11SR)-4-(4-bromo-3-chloro-benzoyl)-11-hydroxy-13-[(1R)-1-phenylethyl]-4,7,9,13-tetrazatricyclo[7.5.0.0^2,7]tetradec-1-ene-8,14-dione] returned an EC50 of 0.1 to 0.5 µM.
In turn, `O=C(NCc1c(F)ccc2nccnc12)c1c2n(c(=O)n1-c1ccc(OC3CC3)cc1)CCN(C(=O)c1ccc(Br)c(Cl)c1)C2` [Example 461, 7-(4-bromo-3-chloro-benozyl)-2-[4-(cyclopropoxy)phenyl]-N-[(6-fluoroquinoxalin-5-yl)methyl]-3-oxo-6,8-dihydro-5H-imidazo[1,5-a]pyrazine-1-carboxamide] yielded an EC50 of under 0.1 µM.
The compound `O=C(NCc1ccc(OC2COC2)cc1F)c1c2n(c(=O)n1-c1ccc(OCC(F)(F)F)cc1)CCN(C(=O)c1ccc(Br)c(Cl)c1)C2` [Example 329, 7-(4-bromo-3-chloro-benzoyl)-N-[[2-fluoro-4-(oxetan-3-yloxy)phenyl]methyl]-3-oxo-2-[4-(2,2,2-trifluoroethoxy)phenyl]-6,8-dihydro-5H-imidazo[1,5-a]pyrazine-1-carboxamide] gave an EC50 of 0.1 to 0.5 µM.
`COc1ccc(C(C)NC(=O)c2c3n(c(=O)n2-c2ccc(OC4CC4)cc2)CCN(C(=O)c2ccc(Br)c(Cl)c2)C3)c(F)c1` (racemic) [Example 420, 7-(4-bromo-3-chloro-benzoyl)-2-[4-(cyclopropoxy)phenyl]-3-oxo-N-[rac-(1R)-1-(2-fluoro-4-methoxy-phenyl)ethyl]-6,8-dihydro-5H-imidazo[1,5-a]pyrazine-1-carboxamide] returned an EC50 of under 0.1 µM.
For `O=C(NCc1ccccc1-c1ncco1)c1c2n(c(=O)n1-c1ccc(OC3CC3)cc1)CCN(C(=O)c1ccc(Br)c(Cl)c1)C2` [Example 366, 7-(4-bromo-3-chloro-benzoyl)-2-[4-(cyclopropoxy)phenyl]-N-[(2-oxazol-2-ylphenyl)methyl]-3-oxo-6,8-dihydro-5H-imidazo[1,5-a]pyrazine-1-carboxamide], the EC50 was under 0.1 µM.
The compound `N#Cc1ccc(CNC(=O)c2c3n(c(=O)n2-c2ccc(OC4CC4)cc2)CCN(C(=O)c2ccc(Br)c(Cl)c2)C3)c(F)c1` [Example 307] gave an EC50 of 0.5 to 5 µM.
Take `COc1ccc(-n2c(C(=O)NCc3ccccc3)c3n(c2=O)CCN(C(=O)c2ccc(Cl)c(Cl)c2)C3)c(Cl)c1` [Example 59, N-benzyl-2-(2-chloro-4-methoxy-phenyl)-7-(3,4-dichlorobenzoyl)-3-oxo-6,8-dihydro-5H-imidazo[1,5-a]pyrazine-1-carboxamide]: the concentration for a half-maximal effect (EC50) lay in the range of 0.5 to 5 µM.
In the case of `COc1ccc([C@H](C)NC(=O)c2c3n(c(=O)n2-c2ccc(OC4CC4)cc2)CCN(C(=O)c2ccc(Br)c(Cl)c2)C3)cc1` [Example 443, 7-(4-bromo-3-chloro-benozyl)-2-[4-(cyclopropoxy)phenyl]-N-[(1S)-1-(4-methoxyphenyl)ethyl]-3-oxo-6,8-dihydro-5H-imidazo[1,5-a]pyrazine-1-carboxamide], the 50% effective concentration (EC50) lay in the range of 0.1 to 0.5 µM.

Usually EC50 stands for the concentration giving half of the maximal effect. Higher therefore signals weaker potency.
